Data from patent publication US10556870B2, “Imidazole compounds as EAAT3 inhibitors” (Hoffmann-La Roche Inc., priority 2016, dated 2020).

Assays:
human EAAT3 = target: T1, human EAAT3 (Homo sapiens, UniProt P43005); test: FLIPR Membrane Potential (FMP) assay, antagonist potency at human EAAT3 with L-glutamate as agonist; assay type: cell-based; conditions: HEK-293 cells stably expressing human EAAT3; L-glutamate at 80% of maximum response; antagonist applied 15 min before agonist; Kb by Cheng-Prusoff equation
T1 construct: expressed in transfected cells
T1 sequence (P43005 1-524): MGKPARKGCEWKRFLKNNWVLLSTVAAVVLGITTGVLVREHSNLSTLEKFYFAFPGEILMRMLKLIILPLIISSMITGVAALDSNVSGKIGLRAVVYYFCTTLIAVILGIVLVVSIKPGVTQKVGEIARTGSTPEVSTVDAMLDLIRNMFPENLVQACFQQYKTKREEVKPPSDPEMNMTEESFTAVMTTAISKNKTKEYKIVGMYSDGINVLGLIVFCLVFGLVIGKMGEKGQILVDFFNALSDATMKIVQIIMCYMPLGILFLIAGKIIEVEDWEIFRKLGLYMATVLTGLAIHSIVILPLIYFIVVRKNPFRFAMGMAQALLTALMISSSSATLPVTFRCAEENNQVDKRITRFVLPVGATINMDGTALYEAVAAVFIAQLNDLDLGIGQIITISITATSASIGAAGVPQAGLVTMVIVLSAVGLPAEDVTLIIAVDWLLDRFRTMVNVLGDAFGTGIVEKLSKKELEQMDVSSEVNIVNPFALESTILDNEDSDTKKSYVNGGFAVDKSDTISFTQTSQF
Protocol: The FLIPR Membrane Potential (FMP) Assay
HEK-293 cells stably expressing human EAAT3 were seeded at 55 000 cells/well in growth medium (DMEM glutamate free (Invitrogen 11960-044), 1% Pen Strep (10 ml/l GIBCO BRL No 15140-023), 10% FCS non dialysed heat inactivated, 5 mg/l puromycin) in poly-D-lysine treated 96-well black microtiter plates with clear-bottom. After 24 h, the growth medium was removed and 100 μl/well of Krebs buffer (140 mM NaCl, 4.7 mM KCl, 2.5 mM CaCl2, 1.2 mM MgCl2, 11 mM HEPES, 10 mM D-glucose, pH=7.4) added. The cells were then loaded by adding 100 μl/well FMP assay dye (FLIPR Membrane Potential assay reagent, Molecular Devices). The 96-well plates were then incubated at 37° C. for 1 h. The depolarization of the cells will cause more dye to enter in the cells, where it will bind to intracellular proteins and lipids and cause an increase in the fluorescence signal. Antagonist potency at human EAAT3 was determined by using L-glutamate as agonist at a concentration which gives 80% of the maximum response. The antagonists were applied 15 min before the application of the agonist L-glutamate. The assays were performed at room temperature and measurements done by using a Fluorometric Imaging Plate Reader (FLIPR, Molecular Devices) and filter #2. Responses were measured as peak increase in fluorescence minus basal (i.e. fluorescence without addition of L-glutamate). Kb was determined using the Cheng-Prusoff equation Kb=IC50/[1+(A/EC50)], where IC50 is the concentration of the antagonist producing 50% inhibition, A is the concentration of the agonist against which the IC50 is being determined (at EC50) and EC50 is the concentration of the agonist producing […].

| Compound | melting point | Kb (human EAAT3) |
| --- | --- | --- |
| Cn1cncc1-c1cc(C(=O)NC(C)(C)C)cc(-c2ccc(C(F)(F)F)cc2)c1 [Example 5, N-tert-Butyl-3-(3-methyl-imidazol-4-yl)-5-[4-(trifluoromethyl)-phenyl]-benzamide] | 78.5 °C | 0.36 µM |
| CC(C)n1cncc1-c1cc(C(=O)NC(C)(C)C)cc(-c2ccc(C(F)(F)F)cc2)c1 [Example 2, N-tert-Butyl-3-(3-propan-2-yl-imidazol-4-yl)-5-[4-(trifluoromethyl)-phenyl]-benzamide] | 88 °C | 0.27 µM |
| CC(C)(C)NC(=O)c1cc(-c2ccc(C(F)(F)F)cc2)cc(-c2cncn2C(C)(C)C)c1 [Example 12, N-tert-Butyl-3-(3-tert-butyl-imidazol-4-yl)-5-[4-(trifluoromethyl)-phenyl]-benzamide] | 87 °C | 0.27 µM |
| CC(C)(C)NC(=O)c1cc(-c2ccc(Cl)cc2)cc(-c2cncn2C(C)(C)C)c1 [Example 7, N-tert-Butyl-3-(3-tert-butyl-imidazol-4-yl)-5-(4-chlorophenyl)-benzamide] | 92 °C | 0.2 µM |
| Cn1cncc1-c1cc(C(=O)NC(C)(C)C)cc(-c2ccc(F)cc2)c1 [Example 6, N-tert-Butyl-3-(4-fluorophenyl)-5-(3-methyl-imidazol-4-yl)-benzamide] | 62 °C | 0.27 µM |
| CC(C)n1cncc1-c1cc(C(=O)NC(C)(C)C)cc(-c2ccc(Cl)cc2)c1 [Example 3, N-tert-Butyl-3-(4-chlorophenyl)-5-(3-propan-2-yl-imidazol-4-yl)-benzamide] | 97.5 °C | 0.14 µM |
| CC(C)n1cncc1-c1cc(C(=O)NC(C)(C)C)cc(-c2ccc(F)cc2)c1 [Example 1, N-tert-Butyl-3-(4-fluorophenyl)-5-(3-propan-2-yl-imidazol-4-yl)-benzamide] | 85 °C | 0.16 µM |
| CCn1cncc1-c1cc(C(=O)NC(C)(C)C)cc(-c2ccc(F)cc2)c1 [Example 9, N-tert-Butyl-3-(3-ethyl-imidazol-4-yl)-5-(4-fluorophenyl)-benzamide] | 79 °C | 0.16 µM |
| CCn1cncc1-c1cc(C(=O)NC(C)(C)C)cc(-c2ccc(C(F)(F)F)cc2)c1 [Example 10, N-tert-Butyl-3-(3-ethyl-imidazol-4-yl)-5-[4-(trifluoromethyl)-phenyl]-benzamide] | 87 °C | 0.23 µM |
| CC(C)(C)NC(=O)c1cc(-c2ccc(F)cc2)cc(-c2cncn2C(C)(C)C)c1 [Example 11, N-tert-Butyl-3-(3-tert-butyl-imidazol-4-yl)-5-(4-fluorophenyl)-benzamide] | 96 °C | 0.21 µM |
| Cn1cncc1-c1cc(C(=O)NC(C)(C)C)cc(-c2ccc(Cl)cc2)c1 [Example 4, N-tert-Butyl-3-(4-chlorophenyl)-5-(3-methyl-imidazol-4-yl)-benzamide] | 79.5 °C | 0.29 µM |
| CCn1cncc1-c1cc(C(=O)NC(C)(C)C)cc(-c2ccc(Cl)cc2)c1 [Example 8, N-tert-Butyl-3-(4-chlorophenyl)-5-(3-ethyl-imidazol-4-yl)-benzamide] | 89 °C | 0.19 µM |
